How the values were obtained:
Rattus norvegicus [1] = species: Rattus norvegicus; assay: Uptake of [GD] in bone 1 hr post injection with 0.005 of the compound; type: functional, Bone element
Rattus norvegicus [2] = species: Rattus norvegicus; assay: Uptake of [GD] in bone 1 hr post injection with 0.02 of the compound; type: functional, Bone element
Rattus norvegicus [3] = species: Rattus norvegicus; assay: Uptake of [GD] in bone 1 hr post injection with 0.05 of the compound; type: functional, Bone element
Rattus norvegicus [4] = species: Rattus norvegicus; assay: Uptake of [GD] in bone 1 hr post injection with 0.10 of the compound; type: functional, Bone element
Rattus norvegicus [5] = species: Rattus norvegicus; assay: Uptake of [GD] in bone 1 hr post injection with NCA GD dose; type: functional, Bone element
[6] = Uptake of [GD] in bone 1 hr post injection with NCA GD dose to that of muscle; type: functional, Muscle tissue
[7] = Ratio of uptake of [GD] in bone 1 hr post injection with 0.005 to that of blood; type: functional
[8] = Ratio of uptake of [GD] in bone 1 hr post injection with 0.005 to that of muscle; type: functional
[9] = Ratio of uptake of [GD] in bone 1 hr post injection with 0.02 to that of blood; type: functional
[10] = Ratio of uptake of [GD] in bone 1 hr post injection with 0.02 to that of muscle; type: functional
[11] = Ratio of uptake of [GD] in bone 1 hr post injection with 0.05 to that of blood; type: functional
[12] = Ratio of uptake of [GD] in bone 1 hr post injection with 0.05 to that of muscle; type: functional
[13] = Ratio of uptake of [GD] in bone 1 hr post injection with 0.10 to that of blood; type: functional
[14] = Ratio of uptake of [GD] in bone 1 hr post injection with 0.10 to that of muscle; type: functional
[15] = Ratio of uptake of [GD] in bone 1 hr post injection with 0.20 to that of blood; type: functional
[16] = Ratio of uptake of [GD] in bone 1 hr post injection with 0.20 to that of muscle; type: functional
[17] = Ratio of uptake of [GD] in bone 1 hr post injection with NCA GD dose to that of blood; type: functional
Rattus norvegicus [18] = species: Rattus norvegicus; assay: Uptake of [GD] in bone 1 hr post injection with 0.20 of the compound; type: functional, Bone element
Rattus norvegicus [19] = species: Rattus norvegicus; assay: Biodistribution in rat bone in the presence of NCAGd/0.01 M lig; type: ADME, organism-based, Bone element; settings: in vivo
Rattus norvegicus [20] = species: Rattus norvegicus; assay: Biodistribution in rat heart in the presence of NCAGd/0.01 M lig; type: ADME, organism-based; settings: in vivo
Rattus norvegicus [21] = species: Rattus norvegicus; assay: Biodistribution in rat muscle in the presence of NCAGd/0.01 M lig; type: ADME, organism-based, Muscle tissue; settings: in vivo
Rattus norvegicus [22] = species: Rattus norvegicus; assay: Biodistribution in rat liver by in the presence of NCAGd/0.01 M lig; type: ADME, organism-based; settings: in vivo
Rattus norvegicus [23] = species: Rattus norvegicus; assay: Biodistribution in rat blood in the presence of NCAGd/0.01 M lig; type: ADME, organism-based; settings: in vivo
Rattus norvegicus [24] = species: Rattus norvegicus; assay: Uptake of [GD] in bone 1 h post injection with 0.01 of the compound; type: functional, Bone element
[25] = Ratio of uptake of [GD] in bone 1 hr post injection with 0.01 to that of muscle; type: functional
[26] = Ratio of uptake of [GD] in bone 1 hr post injection with NCA GD dose to that of muscle; type: functional
Rattus norvegicus [27] = species: Rattus norvegicus; assay: Biodistribution in rat spleen in the presence of NCAGd/0.01 M lig; type: ADME, organism-based; settings: in vivo
Rattus norvegicus [28] = species: Rattus norvegicus; assay: Biodistribution in rat kidney in the presence of NCAGd/0.01 M lig; type: ADME, organism-based; settings: in vivo
Rattus norvegicus [29] = species: Rattus norvegicus; assay: Uptake of [GD] in bone 1 hr post injection with 0.01 (N) of the compound
[30] = Ratio of uptake of [GD] in bone 1 hr post injection with 0.01 (N) to that of blood
[31] = Ratio of uptake of [GD] in bone 1 hr post injection with 0.01 (N) to that of muscle

Question: With `O=C(O)CN(CCN(CC(=O)O)CC(=O)O)CCN(CC(=O)O)CC(=O)NCCC(O)P(=O)(O)OP(=O)(O)O` (configuration not stated) as the compound, how does the ID (Rattus norvegicus [1]) read?
Answer: 44.4%

Question: What about the ID (Rattus norvegicus [2]) of the same compound?
Answer: 28.9%

Question: What about the ID (Rattus norvegicus [3]) of the same compound?
Answer: 21.2%

Question: And the ID (Rattus norvegicus [4])?
Answer: 16.1%

Question: And the ID (Rattus norvegicus [5])?
Answer: 57%

Question: And the Ratio [6]?
Answer: 70.6

Question: What about the Ratio [7] of the same compound?
Answer: 110.4

Question: And the Ratio [8]?
Answer: 52.7

Question: What about the Ratio [9] of the same compound?
Answer: 34.9

Question: What about the Ratio [10] of the same compound?
Answer: 20.1

Question: And the Ratio [11]?
Answer: 29.8

Question: What about the Ratio [12] of the same compound?
Answer: 19.6

Question: And the Ratio [13]?
Answer: 25.7

Question: And the Ratio [14]?
Answer: 12.5

Question: And the Ratio [15]?
Answer: 13.9

Question: And the Ratio [16]?
Answer: 8.08

Question: And the Ratio [17]?
Answer: 108

Question: What about the ID (Rattus norvegicus [18]) of the same compound?
Answer: 13.5%

Question: For `CC(C)(CO)NCCNC(C)(C)CO`, which ID/organ (Rattus norvegicus [19]) is on record?
Answer: 27.7%

Question: And the ID/organ (Rattus norvegicus [20])?
Answer: 0.28%

Question: What about the ID/organ (Rattus norvegicus [21]) of the same compound?
Answer: 4.09%

Question: And the ID/organ (Rattus norvegicus [22])?
Answer: 41%

Question: And the ID/organ (Rattus norvegicus [23])?
Answer: 7.25%

Question: What about the ID (Rattus norvegicus [24]) of the same compound?
Answer: 7.23%

Question: What about the ID (Rattus norvegicus [5]) of the same compound?
Answer: 27.7%

Question: And the Ratio [25]?
Answer: 1.61%

Question: And the Ratio [26]?
Answer: 6.78%

Question: And the ID/organ (Rattus norvegicus [27])?
Answer: 0.19%

Question: And the ID/organ (Rattus norvegicus [28])?
Answer: 2.85%

Question: And the ID (Rattus norvegicus [29])?
Answer: 2.56%

Question: And the Ratio [30]?
Answer: 0.135%

Question: And the Ratio [31]?
Answer: 1.47%
